The test system of one data set is A549 cells. The data set is described as follows: MTT anti-proliferative assay, A549. It counts as cell-based. The conditions noted are these: Homo sapiens, Table 1, 48 h, read-out: IC50 ± SD, A549. The procedure: (§1) The antiproliferative activity of the target indazole derivatives was evaluated against a panel of human cancer cell lines (human chronic myeloid leukemia cell lines K562; human lung cancer cell lines A549; human prostate cancer cell lines PC-3; human hepatoma cell lines HepG-2) in vitro, and human embryonic kidney cell lines HEK-293 were used to evaluate the cytotoxicity of a normal cell with high activity derivatives by MTT assay. Moreover, 5-fluorouracil (5-Fu), a broad-spectrum drug antitumor drug with therapeutic effects on various cancers, was used as a positive control.
(§2) Lung (A549), chronic myeloid leukemia (K562), prostate (PC3), and live (Hep-G2) cells were purchased from the Cell Bank of the Chinese Academy of Sciences (Kunming, China). A549, K562, and PC-3 cells were cultured in RPMI-1640 medium and the liver cells Hep-G2 were cultured in MEM medium. All mediums were supplemented with 10% FBS, 100 μg/mL penicillin and 100 μg/mL streptomycin. All cells were cultivated in a 5% CO2 incubator at 37 °C.
(§3) To investigate the anticancer activity of indazole derivatives, A549, K562, PC3, and Hep-G2 cells were treated with targets compounds respectively for 48 h in a range of concentrations (from 0.625 to 10 μM) and subjected to a proliferation assay using the MTT assay. Exponentially growing cells were seeded at a density of 5000 cells per well in 96-well plates containing 100 μL of fresh growth medium. After allowing the cells to attach for 24 h, target compounds were added. After incubation for 48 h, viable cells were stained with MTT (0.5 mg/mL) for 4 h, and the produced formazan crystals were dissolved with 150 µL of dimethyl sulfoxide. Absorbance was measured at 490 nm using an automated microplate reader (Tecan, Infinite M200 Pro, Männedorf, Switzerland). The relative cell viability was calculated according to the following equation: Cell viability%=experimental OD value/control OD value×100%Cell inhibition%=control OD value−experimental OD value/control OD value×100%
(§4) Cell inhibition%=control OD value−experimental OD value/control OD value×100%

The test system of a further data set is K562 cells. The data set is described as follows: MTT anti-proliferative assay, K562. It counts as cell-based. The settings on record: Homo sapiens, Table 1, 48 h, read-out: IC50 ± SD, K562. Here is the method:
as §1, §2, §3, §4

In a further data set the test system is Hep-G2 cells. The data set is described as follows: MTT anti-proliferative assay, Hep-G2. It counts as cell-based. The conditions noted are these: Homo sapiens, HepG2, 48 h, Table 1, 48 h, read-out: IC50 ± SD, Hep-G2. The procedure:
as §1, §2, §3, §4

The test system of a further data set is PC-3 cells. The data set is described as follows: MTT anti-proliferative assay, PC-3. In kind it is cell-based. The settings on record: Homo sapiens, PC-3, 48 h, Table 1, read-out: IC50 ± SD, PC-3. Here is the method:
as §1, §2
as §3, with “Exponentially” for “To investigate the anticancer activity of indazole derivatives, A549, K562, PC3, and Hep-G2 cells were treated with targets compounds respectively for 48 h in a range of concentrations (from 0.625 to 10 μM) and subjected to a proliferation assay using the MTT assay. Exponentially”
as §4

Some results are limits rather than exact numbers.

`O=C(CSc1ccc(F)cc1)Nc1n[nH]c2ccc(-c3cccc(F)c3)cc12` [5b]: the IC50 with A549 cells is 5.25 ± 0.57 µM; in the data set with K562 cells it was 6.97 ± 0.99 µM; with Hep-G2 cells it was over 50 µM; in the data set on PC-3 cells, 38.4 ± 24.1 µM.
For `O=C(CSc1ccc(Br)cc1)Nc1n[nH]c2ccc(-c3cccc(F)c3)cc12` [5c] the same measures were 5.63 ± 0.59 µM, 9.33 ± 0.64 µM, 4.76 ± 0.63 µM and 60.7 ± 2.91 µM.
For `O=C(CSc1ccccc1Br)Nc1n[nH]c2ccc(-c3cccc(F)c3)cc12` [5d] the same measures were 16.6 ± 3.22 µM, 27.2 ± 0.66 µM, 45.9 ± 2.24 µM and 19.7 ± 2.38 µM.
With `COc1ccc(SCC(=O)Nc2n[nH]c3ccc(-c4ccc(F)cc4)cc23)cc1` [5e], the IC50 with A549 cells is 7.23 ± 0.4 µM; in the data set on K562 cells, over 50 µM; in the data set with Hep-G2 cells, 8.2 ± 0.91 µM; in the data set with PC-3 cells, 12.8 ± 3.09 µM.
`COc1ccc(SCC(=O)Nc2n[nH]c3ccc(-c4ccc(OC(F)(F)F)cc4)cc23)cc1` [5f] registered a melting point of 215 to 216 °C. Moreover, in the data set with A549 cells, the IC50 came to 4.48 ± 0.24 µM. In addition, the IC50 in the data set on K562 cells is over 50 µM. For the same compound, the IC50 in the data set with Hep-G2 cells is over 50 µM. In addition, the IC50 with PC-3 cells amounted to 12.5 ± 4.55 µM.
The compound `O=C(CSc1ccc(F)cc1)Nc1n[nH]c2ccc(-c3ccc(Cl)c(F)c3)cc12` [5g] returned a melting point of 178 to 200 °C. For the same compound, the IC50 in the data set with A549 cells was determined as 6.4 ± 0.26 µM. Moreover, the IC50 in the data set with K562 cells came to 10.3 ± 1.14 µM. Moreover, the IC50 in the data set on Hep-G2 cells worked out at 11.9 ± 0.72 µM. Moreover, in the data set with PC-3 cells, the IC50 amounted to 18.6 ± 5.73 µM.
In turn, `O=C(CSc1ccc(Br)cc1)Nc1n[nH]c2ccc(-c3ccc(Cl)c(F)c3)cc12` [5h] showed a melting point of 267 to 268 °C. The IC50 with A549 cells is 9.26 ± 0.37 µM. In the data set on K562 cells, the IC50 was 14.3 ± 2.13 µM. In the data set with Hep-G2 cells, the IC50 was found to be 11.3 ± 0.75 µM. Moreover, the IC50 with PC-3 cells is 13 ± 7.53 µM.
For `O=C(CSc1ccc([N+](=O)[O-])cc1)Nc1n[nH]c2ccc(-c3ccc(Cl)c(F)c3)cc12` [5i] the same measures were 243 to 246 °C, 4.43 ± 0.15 µM, 6.27 ± 1.22 µM, 5.5 ± 0.17 µM and 6.57 ± 1.1 µM.
For `COc1ccc(SCC(=O)Nc2n[nH]c3ccc(-c4cc(F)cc(F)c4)cc23)cc1` [5j] the same measures were 204 to 205 °C, 3.99 ± 0.16 µM, 8.49 ± 1.87 µM, 5.36 ± 0.25 µM and 14.7 ± 4.55 µM.
For `O=C(CSc1ccccc1Br)Nc1n[nH]c2ccc(-c3cc(F)cc(F)c3)cc12` [5l] the same measures were 199 to 200 °C, 14.1 ± 1.71 µM, 8.19 ± 1.43 µM, 14.9 ± 0.77 µM and over 50 µM.
The compound `O=C(CSc1ccc(Cl)cc1)Nc1n[nH]c2ccc(-c3cc(F)cc(F)c3)cc12` [5m] registered a melting point of 200 to 202 °C. For the same compound, the IC50 in the data set with A549 cells came to 20.2 ± 3.14 µM. Moreover, the IC50 with K562 cells was found to be 13.1 ± 0.46 µM. Also, the IC50 in the data set with Hep-G2 cells was found to be 35.6 ± 4.21 µM. Further, in the data set on PC-3 cells, the IC50 is over 50 µM.
The compound `O=C(CSc1cccc(Cl)c1)Nc1n[nH]c2ccc(-c3cc(F)cc(F)c3)cc12` [5n] registered a melting point of 193 to 194 °C. For the same compound, the IC50 in the data set with A549 cells is 20 ± 1.19 µM. Also, in the data set with K562 cells, the IC50 is 7.25 ± 1.07 µM. Also, the IC50 in the data set on Hep-G2 cells worked out at 6.57 ± 0.13 µM. The IC50 in the data set on PC-3 cells is over 50 µM.
With `O=C(CSc1ccc([N+](=O)[O-])cc1)Nc1n[nH]c2ccc(-c3cc(F)cc(F)c3)cc12` [5o], the IC50 came to 6.64 ± 0.47 µM in the data set on A549 cells, 8.09 ± 1.27 µM in the data set with K562 cells, 8.3 ± 0.56 µM in the data set on Hep-G2 cells and 12.5 ± 2.1 µM in the data set on PC-3 cells.
Regarding `O=C(CSc1ccncc1)Nc1n[nH]c2ccc(-c3cc(F)cc(F)c3)cc12` [5p], the IC50 is 16 ± 0.37 µM in the data set on A549 cells, 15.42 ± 0.15 µM with K562 cells, 7.14 ± 0.33 µM in the data set with Hep-G2 cells and 22.5 ± 9.13 µM in the data set on PC-3 cells.

Source of the values: publication PMC10218234, “Design, Synthesis and Antitumor Activity of 1H-indazole-3-amine Derivatives” (International Journal of Molecular Sciences, 2023).
